Data as given in the supplement of paper PMC10331698.
± gives the standard deviation of the averaged measurements.

How the values were obtained:
Assay in all cases: level (log10 ratio to DMSO vehicle control); higher = higher biomarker level / cell amount than vehicle control
[1] = compound: C=CC(=O)OCC(F)(F)C(F)(F)C(F)(F)COC(=O)C=C [1H,1H,5H,5H-Perfluoro-1,5-pentanediol diacrylate]; conditions: 6700 nM; in DMSO
Protocol: (§1)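 BioMAP Diversity Plus panel of 12 human primary cell co-culture systems (3C, 4H, LPS, SAg, BT, BF4T, BE3C, CASM3C, HDF3CGF, KF3CT, MyoF, Mphg). Compounds were added 1 h before stimulation and left for 24 h (MyoF 48 h; BT 72 h for soluble read-outs or 6 d for IgG). Biomarkers were read by ELISA, cytotoxicity by SRB, PBMC viability and proliferation by Alamar Blue. Each well value was divided by the mean of 8 DMSO control wells on the same plate and log10 transformed; duplicate blinded samples were tested at 4 concentrations.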

[2] = compound: O=C(O)C=CC(F)(C(F)(F)F)C(F)(F)F [3-(Perfluoroisopropyl)-2-propenoic acid]; conditions: in DMSO
Protocol: as §1

[3] = compound: O=C(O)C(F)(F)C(F)(F)C(F)(F)C(F)(F)C(F)(F)C(F)(F)C(F)(F)C(F)(F)C(F)(F)C(F)F [11-H-Perfluoroundecanoic acid]; conditions: in DMSO
Protocol: as §1

[4] = compound: O=S(=O)(Cl)C(F)(F)C(F)(F)C(F)(F)C(F)(F)C(F)(F)C(F)(F)C(F)(F)C(F)(F)F [Perfluoro-1-octanesulfonyl chloride]; conditions: in DMSO
Protocol: as §1

Heptafluorobutyl iodide = compound: FC(F)(F)C(F)(F)C(F)(F)CI [Heptafluorobutyl iodide]; conditions: in DMSO
Protocol: as §1

[5] = compound: NC(=O)C(F)(F)C(F)(F)C(F)(F)C(F)F; conditions: in DMSO
Protocol: as §1

[6] = compound: COC(=O)C(F)(F)C(F)(F)OC(F)(C(F)(F)F)C(F)(F)OC(F)=C(F)F [Methyl perfluoro(3-(1-ethenyloxypropan-2-yloxy)propanoate)]; conditions: in DMSO
Protocol: as §1

[7] = compound: O=S(=O)(O)C(F)(F)C(F)(F)C(F)(F)C(F)(F)C(F)(F)C(F)(F)C(F)(F)C(F)(F)C(F)(F)C(F)(F)F [Sodium perfluorodecanesulfonate]; conditions: in DMSO
Protocol: as §1

[8] = compound: FC(F)(F)C(F)(F)C(F)(F)C(F)(F)C(F)(F)C(F)(F)C(F)(F)I [1-Iodopentadecafluoroheptane]; conditions: in DMSO
Protocol: as §1

[9] = compound: C=C(C)C(=O)OCCC(F)(F)C(F)(F)C(F)(F)C(F)(F)C(F)(F)C(F)(F)F [6:2 Fluorotelomer methacrylate]; conditions: in DMSO
Protocol: as §1

[10] = compound: NS(=O)(=O)C(F)(F)C(F)(F)C(F)(F)C(F)(F)C(F)(F)C(F)(F)F [Perfluorohexanesulfonamide]; conditions: in DMSO
Protocol: as §1

[11] = compound: O=S(=O)(O)CCC(F)(F)C(F)(F)C(F)(F)C(F)(F)C(F)(F)C(F)(F)F [6:2 Fluorotelomer sulfonic acid]; conditions: in DMSO
Protocol: as §1

[12] = compound: FC(F)(F)C(F)(F)CNCC(F)(F)C(F)(F)F [Bis(1H,1H-perfluoropropyl)amine]; conditions: in DMSO
Protocol: as §1

[13] = compound: O=S(=O)(F)C(F)(F)C(F)(F)C(F)(F)C(F)(F)C(F)(F)C(F)(F)C(F)(F)C(F)(F)F [Perfluorooctanesulfonyl fluoride]; conditions: in DMSO
Protocol: as §1

Hexafluoroamylene glycol = compound: OCC(F)(F)C(F)(F)C(F)(F)CO [Hexafluoroamylene glycol]; conditions: in DMSO
Protocol: as §1

Octafluoroadipamide = compound: NC(=O)C(F)(F)C(F)(F)C(F)(F)C(F)(F)C(N)=O [Octafluoroadipamide]; conditions: in DMSO
Protocol: as §1

[14] = compound: FC(F)(F)C(F)(F)C(F)(F)C(F)(F)C(F)(F)C(F)(F)CC1CO1 [3-(Perfluorohexyl)-1,2-epoxypropane]; conditions: in DMSO
Protocol: as §1

Nonafluoropentanamide = compound: NC(=O)C(F)(F)C(F)(F)C(F)(F)C(F)(F)F [Nonafluoropentanamide]; conditions: in DMSO
Protocol: as §1

[15] = compound: FC(F)(F)C(F)(F)C(F)(F)CC1CO1 [1H,1H-Heptafluorobutyl epoxide]; conditions: in DMSO
Protocol: as §1

In the case of CASM3C:LDLR, the “level (log10)” value [1] is reported as -0.004 ± 0.0014, the “level (log10)” value ([2]; 6700 nM) is reported as -0.006 ± 0.017 and the “level (log10)” value ([2]; 20000 nM) is reported as -0.0045 ± 0.00071. For the same test system, the “level (log10)” value ([2]; 60000 nM) was 0.008 ± 0.017, the “level (log10)” value ([3]; 6700 nM) was -0.0025 ± 0.005 and the “level (log10)” value ([3]; 20000 nM) was -0.006 ± 0.0099. For the same test system, the “level (log10)” value ([4]; 6700 nM) was -0.0105 ± 0.005, the “level (log10)” value ([4]; 20000 nM) was -0.011 ± 0.017 and the “level (log10)” value ([4]; 60000 nM) was 0.0095 ± 0.037. For the same test system, the “level (log10)” value (Heptafluorobutyl iodide; 6700 nM) was -0.0015 ± 0.00071, the “level (log10)” value (Heptafluorobutyl iodide; 20000 nM) was 0.0025 ± 0.005 and the “level (log10)” value (Heptafluorobutyl iodide; 60000 nM) was 0.0145 ± 0.015. The “level (log10)” value ([5]; 6700 nM) was -0.008, the “level (log10)” value ([5]; 20000 nM) was -0.006 ± 0.024 and the “level (log10)” value ([5]; 60000 nM) was 0.031 ± 0.042. For the same test system, the “level (log10)” value ([6]; 6700 nM) was -0.0035 ± 0.005, the “level (log10)” value ([6]; 20000 nM) was 0.0085 ± 0.033 and the “level (log10)” value ([7]; 1500 nM) was 0.0155 ± 0.028. For the same test system, the “level (log10)” value ([7]; 4400 nM) was -0.015, the “level (log10)” value ([7]; 13000 nM) was -0.0425 ± 0.018 and the “level (log10)” value ([7]; 40000 nM) was -0.0055 ± 0.035. For the same test system, the “level (log10)” value ([8]; 6700 nM) was -0.002 ± 0.013, the “level (log10)” value ([8]; 20000 nM) was -0.014 and the “level (log10)” value ([9]; 6700 nM) was -0.0185 ± 0.026. The “level (log10)” value ([9]; 20000 nM) was -0.001 ± 0.025, the “level (log10)” value ([9]; 60000 nM) was -0.016 ± 0.0099 and the “level (log10)” value ([10]; 6700 nM) was -0.003 ± 0.014. The “level (log10)” value ([10]; 20000 nM) was -0.0105 ± 0.005, the “level (log10)” value ([10]; 60000 nM) was -0.04 ± 0.011 and the “level (log10)” value ([11]; 6700 nM) was 0.009 ± 0.0057. For the same test system, the “level (log10)” value ([11]; 20000 nM) was -0.001 ± 0.018, the “level (log10)” value ([11]; 60000 nM) was 0.011 ± 0.04 and the “level (log10)” value ([12]; 6700 nM) was -0.005 ± 0.0099. The “level (log10)” value ([12]; 20000 nM) was -0.0065 ± 0.0021, the “level (log10)” value ([12]; 60000 nM) was -0.001 ± 0.025 and the “level (log10)” value ([13]; 6700 nM) was 0.0035 ± 0.0021. The “level (log10)” value ([13]; 20000 nM) was 0.0015 ± 0.012, the “level (log10)” value ([13]; 60000 nM) was 0.0055 ± 0.023 and the “level (log10)” value (Hexafluoroamylene glycol; 6700 nM) was -0.007 ± 0.013. For the same test system, the “level (log10)” value (Hexafluoroamylene glycol; 20000 nM) was -0.0095 ± 0.019, the “level (log10)” value (Hexafluoroamylene glycol; 60000 nM) was 0.024 ± 0.037 and the “level (log10)” value (Octafluoroadipamide; 6700 nM) was -0.0045 ± 0.0064. The “level (log10)” value (Octafluoroadipamide; 20000 nM) was -0.005 ± 0.016, the “level (log10)” value (Octafluoroadipamide; 60000 nM) was 0.007 ± 0.0085 and the “level (log10)” value ([14]; 6700 nM) was -0.003 ± 0.02. For the same test system, the “level (log10)” value ([14]; 20000 nM) was 0.0105 ± 0.012, the “level (log10)” value ([14]; 60000 nM) was 0.025 ± 0.014 and the “level (log10)” value (Nonafluoropentanamide; 6700 nM) was 0.0055 ± 0.059. The “level (log10)” value (Nonafluoropentanamide; 20000 nM) was -0.035 ± 0.0028, the “level (log10)” value (Nonafluoropentanamide; 60000 nM) was 0.021 ± 0.072 and the “level (log10)” value ([15]; 6700 nM) was -0.007 ± 0.0028. The “level (log10)” value ([15]; 20000 nM) was -0.015 ± 0.0057 and the “level (log10)” value ([15]; 60000 nM) was 0.002 ± 0.0099.
